Measured values reported in patent US20020142033A1, “Method for treating incontinence” (priority 1998, published 2002).

Settings: human, in vivo

In the case of `CCNCC#CCOC(=O)C(O)(c1ccccc1)C1CCCCC1` (stereo not shown) [desethyloxybutynin], the “t½ of DESOXY compared to OXY” value is reported as “shorter t½ life compared to OXY”.
